The values below come from patent US7452894B2, “Purine derivatives as purinergic receptor antagonists” (Vernalis Research Limited, priority 2001, dated 2008).

Series [1] addresses human adenosine A2A receptors (Homo sapiens, UniProt P29274). The series is described as follows: Binding affinities at hA2A receptors, displacement of [3H]-CGS 21680. (In a radioligand displacement assay an active substance lowers the binding of a labelled ligand.)
The test system of another series is adenosine A2A receptor. To be noted: cited from earlier work.
The conditions of series [2]: cited from earlier work.
[3] abbreviates: human adenosine A2A receptor, radioligand [3H]-CGS 21680.

Read-outs that look alike come from different tables or passages of the source.

Chain of human adenosine A2A receptors (P29274 whole entry): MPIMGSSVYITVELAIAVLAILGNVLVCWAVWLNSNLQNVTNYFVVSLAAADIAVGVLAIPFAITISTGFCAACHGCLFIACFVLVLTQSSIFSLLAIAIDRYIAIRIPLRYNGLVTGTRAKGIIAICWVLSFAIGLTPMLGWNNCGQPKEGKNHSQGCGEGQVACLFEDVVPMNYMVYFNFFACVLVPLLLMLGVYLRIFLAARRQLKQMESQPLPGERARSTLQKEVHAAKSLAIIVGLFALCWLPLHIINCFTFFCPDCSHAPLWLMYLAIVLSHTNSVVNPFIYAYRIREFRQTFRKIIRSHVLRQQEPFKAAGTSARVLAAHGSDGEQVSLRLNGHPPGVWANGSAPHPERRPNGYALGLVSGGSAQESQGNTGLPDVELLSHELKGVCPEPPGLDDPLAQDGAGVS

In the case of `CSc1nc(-c2ccco2)c2nc[nH]c2n1` [Example 13, 6-(2-Furyl)-2-methylthio-1H-purine], the melting point was in the range of 239.5 to 239.9 °C. This compound showed a Ki in series [1] of 12 nM.

Take `Cc1cccc(CNC(=O)n2cnc3c(-c4ccco4)nc(N)nc32)c1` [Example 47, 2-Amino-6-(2-furyl)-N-(3-methylbenzyl)-9H-purine-9-carboxamide]: the Ki in series [1] (setting [3]) is 1 nM. In series [1], `CCCCCNC(=O)n1cnc2c(-c3ccco3)nc(N)nc21` [Example 52, 2-Amino-6-(2-furyl)-N-n-pentyl-9H-purine-9-carboxamide] had a Ki of 5 nM. `Nc1nc(-c2ccco2)c2ncn(C/C=C/c3ccccc3)c2n1` [Example 57, 6-(2-Furyl)-9-(1-phenyl-1-propene-3-yl)-9H-purine-2-amine] registered a Ki in series [1] of 12 nM. As to `Nc1nc(-c2ccco2)c2ncn(C(=O)NCc3ccc(F)cc3)c2n1` [Example 79, 2-Amino-N-(4-fluorobenzyl)-6-(2-furyl)-9H-purine-9-carboxamide], in series [1] (setting [3]), affinity was put at a Ki of 1 nM. As for `Nc1nc(-c2ccco2)c2ncn(C(=O)NCc3ccc(Cl)c(Cl)c3)c2n1` [Example 80, 2-Amino-N-(3,4-dichlorobenzyl)-6-(2-furyl)-9H-purine-9-carboxamide], in series [1], affinity was put at a Ki of 5 nM. On to `Nc1nc(-c2ccco2)c2ncn(C(=O)NCCc3ccccc3)c2n1` [Example 92, 2-Amino-6-(2-furyl)-N-(2-phenylethyl)-9H-purine-9-carboxamide], for which the Ki in series [1] (setting [3]) is 6 nM. For `Nc1nc(-c2ccco2)c2ncn(C(=O)NCc3ccc(Cl)cc3Cl)c2n1` [Example 93, 2-Amino-N-(2,4-dichlorobenzyl)-6-(2-furyl)-9H-purine-9-carboxamide], the Ki in series [1] was 4 nM.

For `Nc1nc(-c2ccco2)c2ncn(C(=O)OCc3ccccc3)c2n1` [Example 106, Benzyl 2-amino-6-(2-furyl)-9H-purine-9-carboxylate], the melting point was 161.7 °C (dec.). In series [1], this compound came in with a Ki of 1 nM. For `COc1nc(-c2ccco2)c2ncn(C(=O)NCc3ccccc3)c2n1` [Example 112, N-Benzyl-2-methoxy-6-(2-furyl)-9H-purine-9-carboxamide], the Ki in series [1] (setting [3]) was 8 nM. `CN(Cc1ccccc1)C(=O)n1cnc2c(-c3ccco3)nc(N)nc21` [Example 118, 2-Amino-N-benzyl-6-(2-furyl)-N-methyl-9H-purine-9-carboxamide]: the inhibition constant (Ki) in series [1] worked out at 3 nM.

Turning to `Nc1nc(-c2ccco2)c2ncn(Cc3cccc(Cl)c3)c2n1` [Example 125, 9-(3-Chlorobenzyl)-6-(2-furyl)-9H-purine-2-amine], the Ki in series [1] was found to be 6 nM. The same measure, in the same setting: in the case of `Cc1cccc(Cn2cnc3c(-c4ccco4)nc(N)nc32)c1` [Example 126, 6-(2-Furyl)-9-(3-methylbenzyl)-9H-purine-2-amine] it was 7 nM. `Cc1ccc(Cn2cnc3c(-c4ccco4)nc(N)nc32)cc1` [Example 127, 6-(2-Furyl)-9-(4-methylbenzyl)-9H-purine-2-amine] had an inhibition constant Ki in series [1] of 9 nM. Turning to `Nc1nc(-c2ccco2)c2ncn(CC(=O)Nc3cccc(Cl)c3)c2n1` [Example 141, 2-Amino-N-(3-chlorophenyl)-6-(2-furyl)-9H-purine-9-acetamide], the melting point was 278 °C (dec.). Also, affinity in series [1] was put at a Ki of 36 nM.

Consider `Nc1nc(-c2ccco2)c2ncn(Cc3ccccc3F)c2n1` [Example 157, 9-(2-Fluorobenzyl)-6-(2-furyl)-9H-purine-2-amine], for which the Ki in series [1] is 4 nM.

`Nc1nc(-c2ccco2)c2ncn(S(=O)(=O)c3ccc(Br)cc3)c2n1` [Example 162, 9-(4-Bromophenyl)sulphonyl-6-(2-furyl)-9H-purine-2-amine] returned a Ki in series [1] of 8 nM. Still for that read-out and setting: in the case of `Nc1nc(-c2ccco2)c2ncn(S(=O)(=O)/C=C/c3ccccc3)c2n1` [Example 185, 6-(2-Furyl)-9-(2-phenylethenyl)sulphonyl-9H-purine-2-amine] it was 7 nM. `Nc1nc(-c2ccco2)c2ncn(CCCc3cccnc3)c2n1` [Example 189, 6-(2-Furyl)-9-(3-(3-pyridyl)propyl)-9H-purine-2-amine] yielded a Ki in series [1] of 21 nM. The same measure, in the same setting: under `Nc1cccc(Cn2cnc3c(-c4ccco4)nc(N)nc32)c1` [Example 192, 9-(3-Aminobenzyl)-6-(2-furyl)-9H-purine-2-amine] stands 24 nM.

On to `Nc1nc(-c2ccco2)c2ncn(C(=O)NCc3ccco3)c2n1` [Example 201, 2-Amino-6-(2-furyl)-N-(2-furylmethyl)-9H-purine-9-carboxamide], for which, in series [1] (setting [3]), affinity was put at a Ki of 2 nM. Still for that read-out and setting: in the case of `Nc1nc(-c2ccco2)c2ncn(C(=O)NCc3cccs3)c2n1` [Example 202, 2-Amino-6-(2-furyl)-N-(2-thienylmethyl)-9H-purine-9-carboxamide] it was 1 nM.

Consider `Cc1ccc(Cn2cnc3c(-c4ccc(C)o4)nc(N)nc32)cc1` [Example 208, 9-(4-Methylbenzyl)-6-(5-methyl-2-furyl)-9H-purine2-amine], for which the melting point is 210 to 220 °C (dec.). In addition, in series [1], the Ki is 6 nM. In the case of `Cc1cccc(Cn2cnc3c(-c4ccco4)nc(N)nc32)n1` [Example 212, 6-(2-Furyl)-9-(6-methyl-2-pyridyl)methyl-9H-purine-2-amine], the Ki in series [1] was determined as 35 nM. Turning to `Cn1cnc(S(=O)(=O)Nc2ccccc2Cn2cnc3c(-c4ccco4)nc(N)nc32)c1` [Example 235, 6-(2-Furyl)-9-(2-(1-methyl-1H-imidazol-4-ylsulphonylamino)benzyl)-9H-purine-2-amine], the melting point lay within 253.1 to 257.1 °C. This compound showed a Ki in series [1] of 4 nM.

Consider `Nc1nc(-c2ccco2)c2ncn(Cc3ccc(Cl)s3)c2n1` [Example 240, 9-(5-Chloro-2-thienylmethyl)-6-(2-furyl)-9H-purine-2-amine], for which the melting point lay in the range of 210.9 to 211.5 °C. In series [1], this compound yielded a Ki of 7 nM.

Take `Cc1csc(-c2nc(N)nc3c2ncn3Cc2ccccc2F)n1` [Example 244, 9-(2-Fluorobenzyl)-6-(4-methyl-2-thiazolyl)-9H-purine-2-amine]: the melting point came to 259.2 °C. For the same compound, the inhibition constant Ki in series [1] was found to be 7 nM.

Take `Nc1nc(-c2ccco2)c2ncn(Cc3cc([N+](=O)[O-])ccc3F)c2n1` [Example 259, 9-(2-Fluoro-5-nitrobenzyl)-6-(2-furyl)-9H-purine-2-amine]: in series [1], the Ki turned out to be 11 nM. Regarding `CCCn1c(=O)c2c(nc(/C=C/c3ccc(OC)c(OC)c3)n2C)n(CCC)c1=O` [KF 17837, (E)-8-(3,4-dimethoxystyryl)-1,3-dipropyl-7-methylxanthine], in the series on adenosine A2A receptor (in vivo), the “anticataleptic effects of a subthreshold dose of L-DOPA plus benserazide” value is reported as “potentiated”; the “catalepsy induced by haloperidol and reserpine” value is recorded as “reduced”. Also, in the series with adenosine A2A receptor (oral administration), the “cataleptic responses induced by intracerebroventricular CGS 21680” value is listed as “significantly ameliorated”. On to `Cn1c(=O)c2[nH]cnc2n(C)c1=O` [theophylline], for which the “mean objective disability scores” value in series [2] (15 Parkinsonian patients, up to 12 weeks, 150 mg/day oral) is given as “significant improvements”. Moreover, the serum theophylline levels in series [2] (slow release oral preparation 150 mg/day, after one week, Parkinsonian patients) is 4.44 mg/L.

As usually defined, the melting point is the temperature of the solid-liquid transition. By Ki is commonly meant the dissociation constant of the complex between target and ligand, obtained from inhibition or displacement. Read a high Ki as a looser hold on the target.
